The text below walks through data of patent publication US7915270B2, “Oxazole ketones as modulators of fatty acid amide hydrolase” (The Scripps Research Institute, priority 2006, dated 2011).

Bounds are passed on as bounds.

The target in assay [1] is T1, Rat FAAH (Rattus norvegicus, UniProt P97612).
T1 construct: expressed in transfected cells
T1 sequence (P97612 1-579): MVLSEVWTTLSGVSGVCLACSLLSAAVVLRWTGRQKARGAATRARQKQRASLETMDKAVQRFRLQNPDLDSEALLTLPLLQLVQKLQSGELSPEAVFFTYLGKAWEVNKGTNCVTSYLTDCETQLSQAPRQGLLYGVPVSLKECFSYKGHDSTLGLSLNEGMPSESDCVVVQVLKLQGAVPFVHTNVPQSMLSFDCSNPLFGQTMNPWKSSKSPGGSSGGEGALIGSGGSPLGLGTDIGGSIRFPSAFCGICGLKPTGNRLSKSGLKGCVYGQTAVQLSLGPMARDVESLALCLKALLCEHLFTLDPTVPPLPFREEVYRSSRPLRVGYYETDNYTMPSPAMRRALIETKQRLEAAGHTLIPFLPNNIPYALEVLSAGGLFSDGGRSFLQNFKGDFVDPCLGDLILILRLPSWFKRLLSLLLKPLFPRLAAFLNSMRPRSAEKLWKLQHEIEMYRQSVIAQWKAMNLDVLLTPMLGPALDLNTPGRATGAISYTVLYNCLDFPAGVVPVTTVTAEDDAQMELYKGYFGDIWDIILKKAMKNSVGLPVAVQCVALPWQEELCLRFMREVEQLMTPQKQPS
Nature of the assay: Assay Method 2: FAAH assay, 3H-anandamide hydrolysis in cell homogenate (SK-N-MC cells transfected with rat FAAH). Type of assay: biochemical. As to conditions: 3H-AEA 80 nM, rt 1 h, pH 9. Here is the method: A. Transfection of Cells with Rat FAAH
(§1) A 10-cm tissue culture dish with a confluent monolayer of SK—N-MC cells was split 2 days (d) prior to transfection. Using sterile technique, the media was removed and the cells were detached from the dish by the addition of trypsin. One fifth of the cells were then placed onto a new 10-cm dish. Cells were grown in a 37° C. incubator with 5% CO2 in Minimal Essential Media Eagle with 10% Fetal Bovine Serum. After 2 d, cells were approximately 80% confluent. These cells were removed from the dish with trypsin and pelleted in a clinical centrifuge. The pellet was re-suspended in 400 μL complete media and transferred to an electroporation cuvette with a 0.4 cm gap between the electrodes. Supercoiled rat FAAH cDNA (1 μg) was added to the cells and mixed. The voltage for the electroporation was set at 0.25 kV, and the capacitance was set at 960 μF. After electroporation, the cells were diluted into complete media (10 mL) and plated onto four 10-cm dishes. Because of the variability in the efficiency of electroporation, four different concentrations of cells were plated. The ratios used were 1:20, 1:10, and 1:5, with the remainder of the cells being added to the fourth dish. The cells were allowed to recover for 24 h before adding the selection media (complete media with 600 μg/mL G418). After 10 d, dishes were analyzed for surviving colonies of cells. Dishes with well-isolated colonies were used. Cells from individual colonies were isolated and tested.
The assay mixture consisted of 50 μL of the cell homogenate, 10 μL of the test compound, and 40 μL of anandamide [1-^3H-ethanolamine] (^3H-AEA, Perkin-Elmer, 10.3 Ci/mmol), which was added last, for a final tracer concentration of 80 nM. The reaction mixture was incubated at rt for 1 h. During the incubation, 96-well Multiscreen filter plates (catalog number MAFCNOB50; Millipore, Bedford, Mass., USA) were loaded with 25 μL of activated charcoal (Multiscreen column loader, catalog number MACL09625, Millipore) and washed once with 100 μL of MeOH. […] After the 1 h incubation, 60 μL of the reaction mixture were transferred to the charcoal plates, which were then assembled on top of the DYNEX plates using Centrifuge Alignment Frames (catalog number MACF09604, Millipore). The unbound labeled ethanolamine was centrifuged through to the bottom plate (5 min at 2000 rpm), which was preloaded with the scintillant, as described above. The plates were sealed and left at rt for 1 h before counting on a Hewlett Packard TopCount.

In assay [2] the target is T2, FAAH (Homo sapiens, UniProt O00519).
T2 sequence (O00519 1-579): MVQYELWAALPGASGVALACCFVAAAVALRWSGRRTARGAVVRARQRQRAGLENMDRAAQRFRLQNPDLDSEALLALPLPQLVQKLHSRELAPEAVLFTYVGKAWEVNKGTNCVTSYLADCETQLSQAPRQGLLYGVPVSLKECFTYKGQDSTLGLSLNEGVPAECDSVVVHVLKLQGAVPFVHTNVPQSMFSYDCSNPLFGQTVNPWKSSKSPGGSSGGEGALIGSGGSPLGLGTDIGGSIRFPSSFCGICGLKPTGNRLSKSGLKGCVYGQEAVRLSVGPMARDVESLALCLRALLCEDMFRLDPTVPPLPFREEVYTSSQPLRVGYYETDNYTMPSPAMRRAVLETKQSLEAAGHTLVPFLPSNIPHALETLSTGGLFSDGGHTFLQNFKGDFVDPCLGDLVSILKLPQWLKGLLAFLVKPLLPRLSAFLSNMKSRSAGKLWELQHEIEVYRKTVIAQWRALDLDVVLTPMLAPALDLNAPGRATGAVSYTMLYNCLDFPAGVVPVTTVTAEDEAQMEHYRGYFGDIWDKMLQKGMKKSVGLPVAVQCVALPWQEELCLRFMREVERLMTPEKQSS
Nature of the assay: Assay Method 1B: FAAH assay, 3H-anandamide hydrolysis in cell homogenate (T84 or SK-N-MC cells transfected with human FAAH). The format is biochemical. Set-up: expressed in transfected cells. The conditions noted are these: 3H-AEA 80 nM, rt 1 h, pH 9. Here is the method:
as §1, with “Transfection of Cells with Human FAAH A 10-cm” for “A 10-cm”, “electrodes. Supercoiled human FAAH cDNA” for “electrodes. Supercoiled rat FAAH cDNA”, “and tested. […] The reaction mixture was incubated at rt for 1 h. During the incubation, 96-well Multiscreen filter plates (catalog number MAFCNOB50; Millipore, Bedford, Mass., USA) were loaded with 25 μL of activated charcoal (Multiscreen column loader, catalog number MACL09625, Millipore) and washed once with 100 μL of MeOH. Also during the incubation, 96-well DYNEX MicroLite plates (catalog number NL510410) were loaded with 100 μL of MicroScint40 (catalog number 6013641, Packard Bioscience, Meriden, Conn., USA). After the 1 h incubation, 60 μL of the reaction mixture were transferred to the charcoal plates, which were then assembled on top of the DYNEX plates using Centrifuge Alignment Frames (catalog number MACF09604, Millipore). The unbound labeled ethanolamine was centrifuged through to the bottom plate (5 min at 2000 rpm), which was preloaded with the scintillant, as described above. The plates were sealed and left at rt for 1 h before counting on a Hewlett Packard TopCount.” for “and tested.”

Assay [3] has as its target T3, FAAH (Rattus norvegicus, UniProt P97612).
T3 sequence (P97612 1-579): T1 sequence (P97612 1-579)
Nature of the assay: Assay Method 1A: FAAH enzyme assay, 14C-oleamide hydrolysis, solubilized liver plasma membrane extract.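 Also: ki obtained by Dixon analysis, taking the x-intercept of inhibitor concentration versus reciprocal rate plots at fixed substrate level and correcting for substrate concentration relative to Km.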
Method: Linear least squares fits were used for all reaction progress curves and R^2 values were consistently >0.97. […] Ki values were determined by the Dixon Method (x-intercepts of weighted linear fits of [I] versus 1/rate plots at constant substrate concentration, which were converted to Ki values using the formula Ki=−xint/[1+[S]/Km]).

With `COC(=O)c1cccnc1-c1cnc(C(=O)CCCCCCc2ccccc2)o1` [Example 36, Methyl 2-(2-(7-phenylheptanoyl)oxazol-5-yl)nicotinate], the 50% inhibitory concentration (IC50) (as a rule, the concentration at which inhibition is half-maximal) in assay [1] was 150 nM; in assay [2], 180 nM. In addition, the Ki – broadly, a measure of affinity in units of concentration, obtained from inhibition or displacement – in assay [3] was more than 50 nM.
With `COC(=O)c1ccc(-c2cnc(C(=O)CCCCCCc3ccccc3)o2)s1` [Example 57, Methyl 5-(2-(7-phenylheptanoyl)oxazol-5-yl)thiophene-2-carboxylate], the concentration for half-maximal inhibition (IC50) in assay [1] is 75 nM; in assay [2], 6 nM. Further, in assay [3], affinity was put at a Ki of 7 nM.
The matching figures for `COC(=O)c1ccc(-c2cnc(C(=O)CCCCCCc3ccccc3)o2)nc1` [Example 34, Methyl 6-(2-(7-phenylheptanoyl)oxazol-5-yl)nicotinate]: 9 nM, 11 nM and 4 nM.
The matching figures for `O=C(CCCCCCc1ccccc1)c1ncc(-c2ccccc2F)o1` [Example 10, 1-(5-(2-Fluorophenyl)oxazol-2-yl)-7-phenylheptan-1-one]: 9000 nM, 1600 nM and 110 nM.
The matching figures for `O=C(O)c1ccc(-c2cnc(C(=O)CCCCCCc3ccccc3)o2)cc1` [Example 26, 4-(2-(7-Phenylheptanoyl)oxazol-5-yl)benzoic acid]: 160 nM, 6 nM and 60 nM.
As for `O=C(CCCCCCc1ccccc1)c1ncc(-c2ccc(C(=O)O)s2)o1` [Example 58, 5-(2-(7-Phenylheptanoyl)oxazol-5-yl)thiophene-2-carboxylic acid], the IC50 in assay [1] stood at 9 nM; in assay [2], 1 nM. In assay [3], this compound yielded an inhibitory constant (Ki) of 11 nM.
Consider `O=C(O)c1cccc(-c2cnc(C(=O)CCCCCCc3ccccc3)o2)c1` [Example 25, 3-(2-(7-Phenylheptanoyl)oxazol-5-yl)benzoic acid], for which the half-inhibitory concentration (IC50) was determined as 11 nM in assay [1] and 4 nM in assay [2]. Besides, the Ki in assay [3] was 5 nM.
The matching figures for `COC(=O)c1ccc(-c2cnc(C(=O)CCCCCCc3ccccc3)o2)cc1` [Example 24, Methyl 4-(2-(7-phenylheptanoyl)oxazol-5-yl)benzoate]: 1000 nM, 24 nM and 40 nM.
The matching figures for `Nc1ccccc1-c1cnc(C(=O)CCCCCCc2ccccc2)o1` [Example 27, 1-(5-(2-Aminophenyl)oxazol-2-yl)-7-phenylheptan-1-one]: 4000 nM, 1000 nM and 750 nM.
For `O=C(CCCCCCc1ccccc1)c1ncc(-c2ccccc2C(=O)O)o1` [Example 60, 2-(2-(7-Phenylheptanoyl)oxazol-5-yl)benzoic acid], the IC50 was 3000 nM in assay [1] and 440 nM in assay [2]. In assay [3], this compound registered an inhibition constant Ki of 6000 nM.
The matching figures for `NS(=O)(=O)c1ccc(-c2cnc(C(=O)CCCCCCc3ccccc3)o2)cc1` [Example 21, 4-(2-(7-Phenylheptanoyl)oxazol-5-yl)benzenesulfonamide]: 53 nM, 8 nM and 10 nM.
As for `O=C(CCCCCCc1ccccc1)c1ncc(-c2ccc([N+](=O)[O-])cc2)o1` [Example 3, 1-(5-(4-Nitrophenyl)oxazol-2-yl)-7-phenylheptan-1-one], the IC50 was 500 nM in assay [1] and 110 nM in assay [2].
The matching figures for `NC(=O)c1ccc(-c2cnc(C(=O)CCCCCCc3ccccc3)o2)cc1` [Example 9, 4-(2-(7-Phenylheptanoyl)oxazol-5-yl)benzamide]: 60 nM and 10 nM.
The matching figures for `N#Cc1cccc(-c2cnc(C(=O)CCCCCCc3ccccc3)o2)c1` [Example 17, 3-(2-(7-Phenylheptanoyl)oxazol-5-yl)benzonitrile]: 520 nM and 9 nM.
For `O=C(CCCCCCc1ccccc1)c1ncc(-c2ccc(C(=O)C(F)(F)F)cc2)o1` [Example 6, 7-Phenyl-1-(5-(4-(2,2,2-trifluoroacetyl)phenyl)oxazol-2-yl)heptan-1-one], the results for the IC50 in assay [1] and in assay [2] were 1700 nM and 260 nM, respectively.
The matching figures for `NC(=O)c1ccccc1-c1cnc(C(=O)CCCCCCc2ccccc2)o1` [Example 7, 2-(2-(7-Phenylheptanoyl)oxazol-5-yl)benzamide]: 1800 nM and 160 nM.
The matching figures for `N#Cc1ccccc1-c1cnc(C(=O)CCCCCCc2ccccc2)o1` [Example 16, 2-(2-(7-Phenylheptanoyl)oxazol-5-yl)benzonitrile]: 2000 nM and 110 nM.
The matching figures for `O=C(CCCCCCc1ccccc1)c1ncc(-c2c[nH]c(=O)[nH]c2=O)o1` [Example 54, 5-(2-(7-Phenylheptanoyl)oxazol-5-yl)pyrimidine-2,4(1H,3H)-dione]: 47 nM and 8000 nM.
Regarding `NC(=O)c1cccc(-c2cnc(C(=O)CCCCCCc3ccccc3)o2)c1` [Example 8, 3-(2-(7-Phenylheptanoyl)oxazol-5-yl)benzamide], the concentration for half-maximal inhibition (IC50) in assay [1] was 34 nM; in assay [2], 12 nM.
